Structures are written as SMILES. Entries after “also recorded” stand apart in the source; their conditions may differ.

The subject of assay [1] is airway epithelial specific TMEM16A knockout mice. Put plainly: Airway mucus in airway epithelial specific TMEM16A knockout mice. It counts as in vivo, mouse. To be noted: 1 mg/kg intraperitoneally for 5 days. The protocol: In another set of experiments, airway epithelial specific TMEM16A knockout mice were treated with benzbromarone. Airway epithelial specific TMEM16A knockout mice accumulate mucus in club cells, likely due to a secretory defect (FIG. 20A). Benzbromarone […], intraperitoneally) was applied for 5 days to mice with an airway epithelial specific knockout of TMEM16A. […] Thus benzbromarone is beneficial in the treatment of CF by reducing airway mucus plugging and therefore improving lung function.

Assay [2] concerns TMEM16A-expressing HEK293 cells. Put plainly: FM4-64 fluorescence (exocytosis) in TMEM16A-expressing HEK293 cells. It counts as cell-based. To be noted: 10 μM. The protocol:
FIG. 8: TMEM16A controls exocytosis. • A) Whole cell current/voltage relationships obtained in mock transfected and TMEM16A (T16A) expressing HEK293 cells. Stimulation with the Ca^2+ ionophore ionomycin (Iono; 1 μM) activated whole cell currents in TMEM16A-expressing cells (n=12). • B) Increase of FM4-64 fluorescence upon stimulation with ionomycin in mock-transfected and TMEM16A-expressing cells, and inhibition by CaCCinhAO1 (AO1; 10 μM) (n=30). • C) Effect of ATP, or • D) CCH (both 100 μM) on FM4-64 fluorescence in cells expressing P2Y2 or M3 receptors (n=30). Mean±SEM. *significant increase by Iono (paired t-test). #significant difference when compared to mock (unpaired t-test).

Assay [3] relates to airways of OVA-sensitized mice. The assay can be described thus: OVA-induced allergic airway inflammation in mice (alcian blue mucus staining, airway cross section, CD45 infiltration). To be noted: for OVA-induced mucus production: wt mice, tracheal instillation, niflumic acid 20 μM or niclosamide 5 μM. It is filed as in vivo, mouse. As for the experimental part:
Intestinal sections were collected for histological analyses. Mouse airways were fixed by transcardial fixation and were embedded in paraffin or were used as cryosections. For paraffin sections, tissues were fixed in 4% paraformaldehyde (PFA), 0.2% picric acid and 3.4% sucrose in PBS, and were washed in methanol before embedding in paraffin. Sections were stained according to standard Periodic acid-Schiff (PAS) or Alcian Blue methods and assessed by light microscopy.
Mouse models were performed according to the previous example. For investigating mucus, IL-8 release, and leukocytes, tissues were fixed using 4% paraformaldehyde (PFA), 0.2% picric acid and 3.4% sucrose in PBS and washed in methanol before embedding in paraffin. Mucus was analyzed using standard Periodic acid-Schiff (PAS) or alcian blue staining. MUC5AC was stained using anti-MUC5AC mouse antibody (1:200, Abcam, ab3649) and a secondary antibody conjugated with Alexa488 (Life Technologies, A-21206). Nuclei were stained with Hoe33342 (0.1 μg/ml PBS, Aplichem, Darmstadt, Germany). Quantikine ELISA kits (R&D systems) were used to measure secretion of the cytokine IL-8 by Calu3 cells.
All methods were performed as described in the previous examples. Mice were treated with ovalbumin (OVA) to induce an allergic reaction which leads to airway inflammation. […] After allergization with OVA and development of airway inflammation, excessive mucus production and inflammatory infiltration with immune cells is observed. Activation of cholinergic receptors using the muscarinic agonist carbachol (CCH) results in constriction of the airways and secretion of mucus (FIG. 5A-C). 3-day treatment using niclosamide reduced the CCH-induced constriction of the airways (FIG. 1). Furthermore, mucus secretion and inflammatory infiltrates were reduced.
OVA-induced allergic airway inflammation in mice caused pronounced airway goblet cell metaplasia. […] NFA is a well know inhibitor of Ca^2+ activated Cl^− channels and inhibits TMEM16A. The two main TMEM16 paralogs expressed in airway epithelial and smooth muscle cells, TMEM16A and TMEM16F, were expressed in HEK293 cells and the whole cell currents upon activation by the Ca^2+ ionophore ionomycin (Iono) were measured. […] Novel therapeutic strategies for the treatment of inflammatory airway diseases such as CF may therefore consider the use of inhibitors of TMEM16.
The present inventors disclose that airway epithelial knockout of TMEM16A causes a defect in basal, i.e. ATP-mediated mucus secretion. […] Mucus synthesis under inflammatory (OVA) conditions and mucus release upon cholinergic stimulation, however, were not compromised (FIG. 16C). […] Because basal mucus production still occurs in the absence of TMEM16A, other TMEM16 paralogs may also be in charge of mucus synthesis.

Assay [4] concerns the target T1, TMEM16F (Homo sapiens, UniProt Q4KMQ2).
T1 construct: expressed in transfected cells; host or cells: HEK293 cells
T1 sequence (Q4KMQ2 1-910): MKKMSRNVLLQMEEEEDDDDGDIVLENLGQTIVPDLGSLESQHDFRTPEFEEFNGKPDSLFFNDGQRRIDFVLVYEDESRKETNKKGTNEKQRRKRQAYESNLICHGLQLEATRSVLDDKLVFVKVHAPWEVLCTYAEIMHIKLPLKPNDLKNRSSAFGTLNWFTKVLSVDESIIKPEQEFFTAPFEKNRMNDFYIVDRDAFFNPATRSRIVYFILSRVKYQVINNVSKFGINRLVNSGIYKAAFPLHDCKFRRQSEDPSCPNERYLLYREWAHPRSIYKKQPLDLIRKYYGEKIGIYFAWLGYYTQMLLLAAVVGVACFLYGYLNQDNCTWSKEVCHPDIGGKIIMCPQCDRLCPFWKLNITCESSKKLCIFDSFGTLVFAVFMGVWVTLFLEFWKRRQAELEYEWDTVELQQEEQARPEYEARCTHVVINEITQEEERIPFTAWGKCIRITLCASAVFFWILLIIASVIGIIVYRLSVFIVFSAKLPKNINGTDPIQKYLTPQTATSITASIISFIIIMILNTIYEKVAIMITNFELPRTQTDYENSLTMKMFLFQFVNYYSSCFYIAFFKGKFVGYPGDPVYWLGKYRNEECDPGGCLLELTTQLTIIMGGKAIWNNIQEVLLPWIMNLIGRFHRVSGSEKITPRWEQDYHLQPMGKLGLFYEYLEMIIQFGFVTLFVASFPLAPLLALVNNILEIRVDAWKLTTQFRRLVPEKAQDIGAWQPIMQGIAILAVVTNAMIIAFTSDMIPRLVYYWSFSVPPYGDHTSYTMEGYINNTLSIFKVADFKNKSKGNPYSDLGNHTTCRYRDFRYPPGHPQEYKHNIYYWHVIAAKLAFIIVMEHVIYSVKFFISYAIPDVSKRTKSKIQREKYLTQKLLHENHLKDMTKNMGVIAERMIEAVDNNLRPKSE
Put plainly: Whole cell currents in HEK293 cells expressing TMEM16F (patch clamp). The conditions noted are these: HEK293; 1 nM ionomycin; NFA. It is filed as cell-based. As for the experimental part:
(§1) FIG. 14: The TMEM16-inhibitor niflumic acid attenuates inflammatory airway disease. • A,B) OVA-sensitization induced pronounced goblet cell metaplasia as indicated by alcian blue positivity. Exposure to carbachol (CCH, 25 mg/ml, nebulizer) induced release of mucus and airway […]. Bars indicate […]. […] Mean±SEM; *significant inhibition by NFA (paired ttest). # significant difference when compared to OVA (unpaired t-test). (n) number of airways analysed or number of cells examined.
(§2) FIG. 15: Inhibition of TMEM16A and TMEM16F by niclosamide. • A) TMEM16A whole cell currents in overexpressing HEK293 cells. […]
(§3) OVA-induced allergic airway inflammation in mice caused pronounced airway goblet cell metaplasia. […] The two main TMEM16 paralogs expressed in airway epithelial and smooth muscle cells, TMEM16A and TMEM16F, were expressed in HEK293 cells and the whole cell currents upon activation by the Ca^2+ ionophore ionomycin (Iono) were measured. […]
(§4) Similar to TMEM16A, also overexpressed TMEM16F was inhibited by niclosamide (FIG. 15D). […] TMEM16A was activated by ionomycin and TMEM16A currents were measured as iodide quenching.
On the technique in general: The patch-clamp technique gives a direct electrical read-out from membranes.

Assay [5] addresses T2, TMEM16A (Homo sapiens, UniProt Q5XXA6).
T2 sequence (Q5XXA6 1-986): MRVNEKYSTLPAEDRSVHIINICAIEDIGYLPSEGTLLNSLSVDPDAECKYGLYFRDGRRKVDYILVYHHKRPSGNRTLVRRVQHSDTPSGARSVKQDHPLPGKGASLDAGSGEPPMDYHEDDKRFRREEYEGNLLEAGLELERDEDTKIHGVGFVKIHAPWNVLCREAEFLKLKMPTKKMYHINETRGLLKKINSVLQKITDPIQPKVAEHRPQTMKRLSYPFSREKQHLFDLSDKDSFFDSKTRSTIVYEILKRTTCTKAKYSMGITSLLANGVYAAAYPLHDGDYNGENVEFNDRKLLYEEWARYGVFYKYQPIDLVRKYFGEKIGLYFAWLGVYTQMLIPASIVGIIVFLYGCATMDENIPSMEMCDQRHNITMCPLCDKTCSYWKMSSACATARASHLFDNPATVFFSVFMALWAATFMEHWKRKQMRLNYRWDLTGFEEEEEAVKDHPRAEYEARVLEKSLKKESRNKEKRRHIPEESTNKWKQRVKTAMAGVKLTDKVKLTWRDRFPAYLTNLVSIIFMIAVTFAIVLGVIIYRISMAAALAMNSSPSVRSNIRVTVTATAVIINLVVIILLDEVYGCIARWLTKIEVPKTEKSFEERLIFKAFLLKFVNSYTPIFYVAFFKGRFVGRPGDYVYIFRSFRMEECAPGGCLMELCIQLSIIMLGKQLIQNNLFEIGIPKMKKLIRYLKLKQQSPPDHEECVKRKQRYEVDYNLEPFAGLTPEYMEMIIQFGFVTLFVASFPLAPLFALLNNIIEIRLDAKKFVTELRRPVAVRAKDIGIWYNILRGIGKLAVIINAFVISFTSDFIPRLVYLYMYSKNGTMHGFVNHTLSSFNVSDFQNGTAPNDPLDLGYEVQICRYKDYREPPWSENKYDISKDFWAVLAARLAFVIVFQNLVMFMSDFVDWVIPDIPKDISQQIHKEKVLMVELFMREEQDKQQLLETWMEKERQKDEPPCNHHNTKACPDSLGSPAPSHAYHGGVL
The assay can be described thus: Whole cell currents in HEK293 cells expressing TMEM16A (patch clamp). It is filed as cell-based. More on the design: expressed in transfected cells; host or cells: HEK293 cells. The conditions noted are these: HEK293; 1 nM ionomycin; NFA. The protocol: as §1, §2, §3, §4

For assay [6], the system named is endogenous TMEM16A. The assay can be described thus: Iodide quenching of YFP in HT29 cells stimulated with ionomycin. It is filed as cell-based. The protocol: FIG. 15: Inhibition of TMEM16A and TMEM16F by niclosamide. • A) TMEM16A whole cell currents in overexpressing HEK293 cells. […] Rate of YFP quenching (arbitrary units (au/second), when applying 20 mM iodide to the extracellular bath solution. HT29 cells stably overexpressing YFP were stimulated with […] ionomycin. 100,000 cells were seeded/well. Mean±SEM; (number of experiments) #significant inhibition when compared to the absence of the inhibitor (p<0.05; unpaired t-test); *significant activation by UTP (paired t-test).
Similar to TMEM16A, also overexpressed TMEM16F was inhibited by niclosamide (FIG. 15D). The effect of niclosamide was also examined on endogenous TMEM16A expressed in HT29 colonic carcinoma cells, which were stably transfected with iodide-sensitive yellow fluorescent protein (YFP). TMEM16A was activated by ionomycin and TMEM16A currents were measured as iodide quenching.

Setting [7] is: OVA-sensitized mice, acute exposure to TMEM16A activator.
[8] abbreviates: OVA-sensitized mice, 20 mg/kg/day intratracheal for three days before CCH, 20 mg/kg/day.

For `CCc1oc2ccccc2c1C(=O)c1cc(Br)c(O)c(Br)c1` [Benzbromarone, (3,5-dibromo-4-hydroxyphenyl) (2-ethyl-1-benzofuran-3-yl)methanone], in assay [1], the mucus production entry is reported as “largely reduced”.

`CC(C)(C)C1CCc2c(sc(NC(=O)c3ccco3)c2C(=O)O)C1` (stereo not drawn) [CaCCinhAO1]: the “increase of FM4-64 fluorescence upon stimulation with ionomycin” value in assay [2] is “inhibition”.

Consider `COCCN(C(=O)c1cc(OC)c(OC)c(OC)c1)c1nc(-c2ccccc2)cs1` [Eact], for which, in assay [3] (setting [7]), the airway contraction result is “airway contraction” and the mucus release result is reported as “induces massive mucus release”.

As to `O=C(O)c1cccnc1Nc1cccc(C(F)(F)F)c1` [NFA, niflumic acid], in assay [3] (setting [8]), the “CCH-induced airway contraction (airway cross sections)” value is reported as “completely blocked; also recorded: strongly attenuated” and the “mucus production / airway mucus” value is given as “abolished; also recorded: strongly attenuated”. Moreover, the OVA-induced mucus production result in assay [3] is reported as “strongly reduced”. The OVA-induced mucus production result in assay [3] (listed as niflumic acid) is reported as “inhibited mucus production”. In assay [4], the “TMEM16F whole cell current activated by ionomycin” value was “potently suppressed”. The “TMEM16A whole cell current activated by ionomycin” value in assay [5] is “potently suppressed”.

Consider `O=C(Nc1ncc([N+](=O)[O-])s1)c1ccccc1O` [tizoxanide, 2-hydroxy-N-(5-nitro-1,3-thiazol-2-yl)benzamide], for which, in assay [6] (HT29 YFP iodide quenching), the “potency compared with CaCCinhAO1 or dichlorophen” value is “more potent”. Moreover, in assay [6] (HT29 cells stably expressing YFP, ionomycin, 20 mM iodide), the “inhibition of endogenous TMEM16A (iodide quenching of YFP)” value was “low nanomolar range”.

Values taken from patent publication US20210283110A1, “COMPOUND FOR USE IN THE TREATMENT OF A DISEASE CHARACTERIZED BY DYSREGULATED MUCUS PRODUCTION AND/OR SECRETION” (UNIVERSITÄT REGENSBURG, priority 2018, published 2021).
